Measurements from publication PMC7215089, “Identification of a Conserved Prophenoloxidase Activation Pathway in Cotton Bollworm Helicoverpa armigera” (Frontiers in Immunology, 2020).

Target: T1, PPO / PO (PPO1-PPO2 heterodimer) (Helicoverpa armigera, UniProt A0A290U614+Q2VIY6)
T1 sequence (A0A290U614 1-684): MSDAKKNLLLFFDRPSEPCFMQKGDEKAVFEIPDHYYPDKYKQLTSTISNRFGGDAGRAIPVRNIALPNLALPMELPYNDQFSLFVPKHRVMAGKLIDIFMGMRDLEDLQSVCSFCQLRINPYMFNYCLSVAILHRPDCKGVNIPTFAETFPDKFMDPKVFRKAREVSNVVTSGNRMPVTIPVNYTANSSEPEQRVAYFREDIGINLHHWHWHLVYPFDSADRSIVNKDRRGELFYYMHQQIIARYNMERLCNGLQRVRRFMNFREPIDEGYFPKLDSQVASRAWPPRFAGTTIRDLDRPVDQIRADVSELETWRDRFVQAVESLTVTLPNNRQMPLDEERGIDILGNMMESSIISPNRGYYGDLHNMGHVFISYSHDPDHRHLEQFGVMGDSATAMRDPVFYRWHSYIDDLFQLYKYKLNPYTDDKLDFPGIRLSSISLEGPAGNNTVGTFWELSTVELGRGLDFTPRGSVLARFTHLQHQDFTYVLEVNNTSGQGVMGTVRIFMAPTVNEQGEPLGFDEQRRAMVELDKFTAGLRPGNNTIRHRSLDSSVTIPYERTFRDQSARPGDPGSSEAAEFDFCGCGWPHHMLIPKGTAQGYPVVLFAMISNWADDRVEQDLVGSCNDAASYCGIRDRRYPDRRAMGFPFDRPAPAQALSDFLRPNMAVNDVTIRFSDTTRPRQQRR
T1 sequence (Q2VIY6 1-698): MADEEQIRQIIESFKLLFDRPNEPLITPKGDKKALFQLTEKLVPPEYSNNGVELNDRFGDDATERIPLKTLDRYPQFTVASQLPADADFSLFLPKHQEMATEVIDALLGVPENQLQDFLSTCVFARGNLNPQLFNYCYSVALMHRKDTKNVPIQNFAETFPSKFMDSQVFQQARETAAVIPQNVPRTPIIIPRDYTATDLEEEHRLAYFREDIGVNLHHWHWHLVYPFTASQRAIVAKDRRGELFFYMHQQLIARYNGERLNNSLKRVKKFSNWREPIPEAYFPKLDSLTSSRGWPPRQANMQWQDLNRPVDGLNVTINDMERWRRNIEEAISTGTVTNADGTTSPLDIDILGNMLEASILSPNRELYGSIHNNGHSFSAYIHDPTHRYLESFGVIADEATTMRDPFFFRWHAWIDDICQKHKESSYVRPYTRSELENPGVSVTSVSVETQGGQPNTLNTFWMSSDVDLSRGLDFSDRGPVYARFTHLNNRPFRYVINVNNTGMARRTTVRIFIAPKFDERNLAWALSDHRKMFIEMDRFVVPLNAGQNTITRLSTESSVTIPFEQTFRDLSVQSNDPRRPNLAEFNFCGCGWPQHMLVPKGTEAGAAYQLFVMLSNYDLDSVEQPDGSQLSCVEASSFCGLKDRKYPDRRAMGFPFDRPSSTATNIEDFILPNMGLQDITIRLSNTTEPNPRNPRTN
Assay: phenoloxidase assay, dopamine chrome formation
Assay type: biochemical
Conditions: PPO activated by CPC

NCCc1ccc(O)c(O)c1 [dopamine]
phenoloxidase assay, dopamine chrome formation: production of dopamine chrome (or dopachrome) from dopamine (or dopa)
